Measurements reported in ChEMBL document CHEMBL3813655 (ACS Med Chem Lett, 2016).
Activity calls are given as the source filed them. The calls are words filed in the database; no cut-off is given here.

Key:
[1] = biological target: Receptor-type tyrosine-protein kinase FLT3 (Homo sapiens, UniProt P36888, D835Y)
[2] = biological target: Receptor-type tyrosine-protein kinase FLT3 (Homo sapiens, UniProt P36888, ITD)
Serum = assay: Protein binding in 10% human serum at 100 uM after 3 days; type: ADME; settings: 72 h
MOLM-13 = assay: Antiproliferative activity against pMMP-LucNeo fused human MOLM13 cells assessed as cell viability after 3 days by cell titer glo assay; type: functional, cell-based
MOLM-14 = assay: Antiproliferative activity against human MOLM14 cells assessed as cell viability after 3 days by cell titer glo assay; type: functional, cell-based
HEL = assay: Antiproliferative activity against human HEL cells assessed as cell viability by cell titer glo assay; type: functional, cell-based
NOMO-1 = assay: Antiproliferative activity against human NOMO1 cells assessed as cell viability by cell titer glo assay; type: functional, cell-based
Homo sapiens = species: Homo sapiens; assay: Antiproliferative activity against human P31 cells assessed as cell viability by cell titer glo assay; type: functional, cell-based
K562 = assay: Antiproliferative activity against human K562 cells assessed as cell viability by cell titer glo assay; type: functional, cell-based
PF-382 = assay: Antiproliferative activity against human PF382 cells assessed as cell viability by cell titer glo assay; type: functional, cell-based
U-937 = assay: Antiproliferative activity against human U937 cells assessed as cell viability by cell titer glo assay; type: functional, cell-based
K052 = assay: Antiproliferative activity against human K052 cells assessed as cell viability by cell titer glo assay; type: functional, cell-based
NALM-6 = assay: Antiproliferative activity against human NALM6 cells assessed as cell viability by cell titer glo assay; type: functional, cell-based
NB-4 = assay: Antiproliferative activity against pMMP-LucNeo fused human NB4 cells assessed as cell viability by cell titer glo assay; type: functional, cell-based
THP-1 = assay: Antiproliferative activity against human THP1 cells assessed as cell viability by cell titer glo assay; type: functional, cell-based
[3] = Cell cycle arrest in […]-ITD mutant expressing mouse BA/F3 cells assessed accumulation at G1 phase up to 100 nM after 48 hrs by propidium iodide staining based FACS analysis; type: functional; settings: BaF3
BaF3 [4] = assay: Induction of apoptosis in […]-ITD mutant expressing mouse BA/F3 cells up to 1000 nM after 48 hrs by Annexin V-fluos assay; type: functional, cell-based
[5] = Cell cycle arrest in […]-D835Y mutant expressing mouse BA/F3 cells assessed accumulation at G1 phase up to 100 nM after 48 hrs by propidium iodide staining based FACS analysis; type: functional; settings: BaF3
BaF3 [6] = assay: Induction of apoptosis in […]-D835Y mutant expressing mouse BA/F3 cells up to 1000 nM after 48 hrs by Annexin V-fluos assay; type: functional, cell-based
[7] = Antiproliferative activity against human patient-derived FLT3 D835Y mutant expressing AML cells primagrafted in mouse spleen after 3 days; type: functional, cell-based; settings: 72 h
[8] = Antiproliferative activity against human patient-derived FLT3 ITD mutant expressing AML cells primagrafted in mouse spleen after 3 days; type: functional, cell-based; settings: 72 h
[9] = biological target: Phosphorylase b kinase gamma catalytic chain, skeletal muscle/heart isoform (Homo sapiens, UniProt Q16816); assay: Inhibition of PHKGI (unknown origin) by kinomescan analysis
Chain of Phosphorylase b kinase gamma catalytic chain, skeletal muscle/heart isoform (Q16816 whole entry, canonical isoform): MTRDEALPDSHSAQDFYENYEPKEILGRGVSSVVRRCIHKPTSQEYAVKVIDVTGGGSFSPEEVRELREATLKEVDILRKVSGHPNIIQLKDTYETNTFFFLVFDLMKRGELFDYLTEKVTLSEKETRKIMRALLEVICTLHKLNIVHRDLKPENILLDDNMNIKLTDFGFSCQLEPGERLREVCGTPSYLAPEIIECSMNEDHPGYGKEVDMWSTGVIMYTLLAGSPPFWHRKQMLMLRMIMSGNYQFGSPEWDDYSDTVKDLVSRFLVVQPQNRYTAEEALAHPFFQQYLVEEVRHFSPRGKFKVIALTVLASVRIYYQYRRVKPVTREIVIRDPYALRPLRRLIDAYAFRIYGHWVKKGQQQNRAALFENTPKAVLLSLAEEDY

[10] = biological target: Dual specificity protein kinase CLK4 (Homo sapiens, UniProt Q9HAZ1); assay: Inhibition of CLK4 (unknown origin) by kinomescan analysis
Chain of Dual specificity protein kinase CLK4 (Q9HAZ1 whole entry): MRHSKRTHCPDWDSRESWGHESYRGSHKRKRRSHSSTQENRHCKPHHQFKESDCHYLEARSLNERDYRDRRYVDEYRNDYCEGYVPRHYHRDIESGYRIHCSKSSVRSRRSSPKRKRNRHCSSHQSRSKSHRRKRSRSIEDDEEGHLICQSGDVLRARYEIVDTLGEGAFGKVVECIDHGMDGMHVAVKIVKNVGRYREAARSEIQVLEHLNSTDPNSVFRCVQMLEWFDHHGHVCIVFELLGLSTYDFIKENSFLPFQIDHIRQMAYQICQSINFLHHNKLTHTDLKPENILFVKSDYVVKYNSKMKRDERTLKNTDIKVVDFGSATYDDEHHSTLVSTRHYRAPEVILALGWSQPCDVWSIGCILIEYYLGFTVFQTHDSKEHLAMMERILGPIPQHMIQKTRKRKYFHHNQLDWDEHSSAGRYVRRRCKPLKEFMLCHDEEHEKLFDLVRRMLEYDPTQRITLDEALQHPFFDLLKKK

[11] = biological target: Rho-associated protein kinase 2 (Homo sapiens, UniProt O75116); assay: Inhibition of ROCK2 (unknown origin) by kinomescan analysis
Chain of Rho-associated protein kinase 2 (O75116 whole entry): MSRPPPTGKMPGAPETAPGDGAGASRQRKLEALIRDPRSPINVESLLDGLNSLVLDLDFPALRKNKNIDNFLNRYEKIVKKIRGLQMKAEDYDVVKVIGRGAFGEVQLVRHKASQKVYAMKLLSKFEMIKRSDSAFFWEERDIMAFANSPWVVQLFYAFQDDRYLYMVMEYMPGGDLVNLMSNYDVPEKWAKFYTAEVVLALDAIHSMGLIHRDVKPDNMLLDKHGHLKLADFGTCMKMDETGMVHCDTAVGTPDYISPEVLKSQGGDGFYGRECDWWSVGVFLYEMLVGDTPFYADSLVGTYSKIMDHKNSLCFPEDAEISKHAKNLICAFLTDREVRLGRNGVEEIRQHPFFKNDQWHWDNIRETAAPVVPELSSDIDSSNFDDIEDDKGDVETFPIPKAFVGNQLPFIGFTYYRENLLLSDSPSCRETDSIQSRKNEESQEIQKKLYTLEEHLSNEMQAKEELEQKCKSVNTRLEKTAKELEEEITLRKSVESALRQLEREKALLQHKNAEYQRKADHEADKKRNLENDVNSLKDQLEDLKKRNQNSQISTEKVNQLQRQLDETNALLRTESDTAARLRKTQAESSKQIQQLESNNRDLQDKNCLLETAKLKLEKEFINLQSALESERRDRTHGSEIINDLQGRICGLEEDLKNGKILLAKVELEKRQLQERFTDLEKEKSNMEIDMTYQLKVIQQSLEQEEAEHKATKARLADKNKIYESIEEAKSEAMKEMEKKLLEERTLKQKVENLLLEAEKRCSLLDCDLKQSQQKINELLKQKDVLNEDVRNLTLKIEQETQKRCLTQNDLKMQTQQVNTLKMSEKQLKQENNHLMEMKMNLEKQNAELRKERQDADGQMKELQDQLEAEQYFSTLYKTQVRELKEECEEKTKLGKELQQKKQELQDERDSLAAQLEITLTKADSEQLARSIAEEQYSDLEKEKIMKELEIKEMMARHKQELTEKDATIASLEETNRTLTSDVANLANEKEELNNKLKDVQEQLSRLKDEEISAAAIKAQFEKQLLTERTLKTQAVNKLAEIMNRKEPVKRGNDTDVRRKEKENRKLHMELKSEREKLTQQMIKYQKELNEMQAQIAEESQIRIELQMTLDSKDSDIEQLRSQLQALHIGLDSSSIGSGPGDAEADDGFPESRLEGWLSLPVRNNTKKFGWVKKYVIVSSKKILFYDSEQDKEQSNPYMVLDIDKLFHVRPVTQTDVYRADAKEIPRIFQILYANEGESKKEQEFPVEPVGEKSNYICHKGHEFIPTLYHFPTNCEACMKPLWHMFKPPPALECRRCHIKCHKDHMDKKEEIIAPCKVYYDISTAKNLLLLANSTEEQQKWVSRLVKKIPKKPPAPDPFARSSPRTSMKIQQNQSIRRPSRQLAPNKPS

[12] = biological target: Dual specificity protein kinase CLK1 (Homo sapiens) (UniProt P49759); assay: Inhibition of CLK1 (unknown origin) at 1 uM by kinomescan analysis
Chain of Dual specificity protein kinase CLK1 (Homo sapiens) (P49759 whole entry, looked up): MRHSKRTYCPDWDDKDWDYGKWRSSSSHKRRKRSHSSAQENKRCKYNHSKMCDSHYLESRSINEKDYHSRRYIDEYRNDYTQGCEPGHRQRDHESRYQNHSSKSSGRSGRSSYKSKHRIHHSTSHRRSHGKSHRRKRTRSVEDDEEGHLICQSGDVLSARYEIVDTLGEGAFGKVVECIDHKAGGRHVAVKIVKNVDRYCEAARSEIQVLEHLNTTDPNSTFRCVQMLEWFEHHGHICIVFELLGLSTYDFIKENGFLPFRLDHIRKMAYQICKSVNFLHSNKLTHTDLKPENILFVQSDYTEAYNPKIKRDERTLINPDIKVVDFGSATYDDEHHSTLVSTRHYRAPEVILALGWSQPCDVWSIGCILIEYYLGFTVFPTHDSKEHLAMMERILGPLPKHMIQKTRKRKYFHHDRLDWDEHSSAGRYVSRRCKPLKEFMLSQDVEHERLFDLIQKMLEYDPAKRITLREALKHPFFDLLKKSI

[13] = Half life in mouse microsomes; type: ADME, Microsome
Plasma = assay: Stability in mouse plasma after 6 hrs; type: ADME, cell-free
[14] = biological target: Receptor-type tyrosine-protein kinase FLT3 (Homo sapiens) (UniProt P36888); settings: 1 uM
Description: Inhibition of wild type FLT3 (unknown origin) at 1 uM by kinomescan analysis

[15] = test system: Receptor-type tyrosine-protein kinase FLT3 (Homo sapiens), P36888 [UNDEFINED MUTATION]; settings: 1 uM
[16] = test system: Receptor-type tyrosine-protein kinase FLT3 (Homo sapiens), P36888 [N841I]; settings: 1 uM
Description: Inhibition of FLT3 N841I mutant (unknown origin) at 1 uM by kinomescan analysis

[17] = test system: Receptor-type tyrosine-protein kinase FLT3 (Homo sapiens), P36888 [D835V]; settings: 1 uM
Description: Inhibition of FLT3 D835V mutant (unknown origin) at 1 uM by kinomescan analysis

[18] = test system: Receptor-type tyrosine-protein kinase FLT3 (Homo sapiens), P36888 [UNDEFINED MUTATION]; settings: 1 uM; remark: listed apart in the source
[19] = test system: Receptor-type tyrosine-protein kinase FLT3 (Homo sapiens), P36888 [UNDEFINED MUTATION]; settings: 1 uM; remark: listed apart in the source
[20] = test system: Receptor-type tyrosine-protein kinase FLT3 (Homo sapiens), P36888 [R834Q]; settings: 1 uM
Description: Inhibition of FLT3 R834Q double mutant (unknown origin) at 1 uM by kinomescan analysis

SMILES: CN(C)CCCn1cc(-c2ccc3c(c2)-c2[nH]c4cc(-c5cn[nH]c5)ccc4c2C3=O)cn1
- IC50 [1]: 4 nM
- IC50 [2]: 10 nM
- PB (Serum): Active
- Activity (MOLM-13): Active
- Activity (MOLM-14): Active
- Activity (HEL): inactive
- Activity (NOMO-1): inactive
- Activity (Homo sapiens): inactive
- Activity (K562): inactive
- Activity (PF-382): inactive
- Activity (U-937): inactive
- Activity (K052): inactive
- Activity (NALM-6): inactive
- Activity (NB-4): inactive
- Activity (THP-1): inactive
- Activity [3]: Active
- Activity (BaF3 [4]): Active
- Activity [5]: inactive
- Activity (BaF3 [6]): Active
- IC50 [7]: 70 nM
- IC50 [8]: 70 nM
- IC50 [9]: 78 nM
- IC50 [10]: 142 nM
- IC50 [11]: 936 nM
- inhibition [12]: Active
- half-life [13]: 15 min
- Stability (Plasma): Stable
- inhibition [14]: > 95%
- inhibition [15]: > 95%
- inhibition [16]: > 95%
- inhibition [17]: > 95%
- inhibition [18]: > 95%
- inhibition [19]: > 95%
- inhibition [20]: > 95%
